Experiment [1] addresses T1, B. cereus culture (Bacillus cereus, UniProt P05806).
T1 construct: B. cereus culture filtrate, 5 μl/ml substrate; endogenous in cells; host or cells: Bacillus cereus X-3 DSM 3101 culture filtrate
The experiment can be described thus: Two-stage assay on bacterial culture filtrate: inhibition by phosphoramidon. In kind it is biochemical. As for the experimental part:
Bacillus cereus (X-3 DSM 3101, German Collection of Microorganisms, Braunschweig, FRG) containing the neural proteinase were obtained by overnight cultivation in a rich medium supplemented with calcium chloride.
(§1) Neutral endopeptidase and neutral proteinase activities were assayed by the two-stage assay using the synthetic substrate Suc-Ala-Ala-Leu-NH-Np supplemented with Streptomyces griseus aminopeptidase, usually 6-7 μg/ml. Assays were performed in 0.1M NaCl-0.05M Tris.HCl, pH 7.5 at 25° C., unless otherwise stated, with or without 0.01M CaCl2. Assay volume was 1 ml or 2.5 ml when using a Varian Techtron spectrophotometer or 0.2 ml at 23° C. when performed with microplates (Munc Immuno Plate II F) using a Kinetic Microplate Reader (Molecular Devices Corp.). Activity was measured by following the increase in absorbance at 405 nm, due to the release of 4-nitroaniline, E405 =10,600M^-1 cm^-1 [14 ]. Molar concentration of thermolysin was estimated using A280 1% =17.65 [15] and molecular mass of 34,600 Da; molar concentration of bovine kidney neutral endopeptidase by protein determination and molecular mass of 90 kDa, deduced from SDS PAGE. […]
(§2) Inhibition was measured at pH 7.5, 25° C., in the presence of 10 mM CaCl2 except for the neutrophils that were assayed at 37° C. and in the absence of added Ca^2+. […]

Experiment [2] addresses T2, Thermolysin (Bacillus thermoproteolyticus, UniProt P00800).
T2 sequence (P00800 233-548): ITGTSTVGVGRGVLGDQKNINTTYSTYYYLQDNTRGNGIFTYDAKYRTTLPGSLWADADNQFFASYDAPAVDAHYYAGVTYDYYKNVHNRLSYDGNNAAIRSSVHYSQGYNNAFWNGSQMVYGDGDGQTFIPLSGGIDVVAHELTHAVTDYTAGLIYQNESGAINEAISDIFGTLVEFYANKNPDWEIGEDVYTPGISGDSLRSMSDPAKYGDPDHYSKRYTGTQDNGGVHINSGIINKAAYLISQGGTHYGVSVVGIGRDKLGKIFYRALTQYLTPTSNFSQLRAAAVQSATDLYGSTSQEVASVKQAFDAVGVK
The experiment is described as follows: Two-stage assay with Suc-Ala-Ala-Leu-NH-Np plus S. griseus aminopeptidase: inhibition by phosphoramidon. In kind it is biochemical. As for the experimental part: (§3) Neutral endopeptidase and neutral proteinase activities were assayed by the two-stage assay using the synthetic substrate Suc-Ala-Ala-Leu-NH-Np supplemented with Streptomyces griseus aminopeptidase, usually 6-7 μg/ml. Assays were performed in 0.1M NaCl-0.05M Tris.HCl, pH 7.5 at 25° C., unless otherwise stated, with or without 0.01M CaCl2. Assay volume was 1 ml or 2.5 ml when using a Varian Techtron spectrophotometer or 0.2 ml at 23° C. when performed with microplates (Munc Immuno Plate II F) using a Kinetic Microplate Reader (Molecular Devices Corp.). Activity was measured by following the increase in absorbance at 405 nm, due to the release of 4-nitroaniline, E405 =10,600M^-1 cm^-1 [14 ]. Molar concentration of thermolysin was estimated using A280 1% =17.65 [15] and molecular mass of 34,600 Da; molar concentration of bovine kidney neutral endopeptidase by protein determination and molecular mass of 90 kDa, deduced from SDS PAGE. Both endopeptidase 24.11 from bovine kidney and thermolysin cleave the Ala-Leu bond of the compound at a very fast rate (Table 3). The Leu residue of the substrate interacts with the major hydrophobic specificity sites of the enzymes (S'1), whereas the two Ala residues interact with additional subsites (S1, S2), thereby contributing to catalysis and/or binding. Even the 4-nitroaniline leaving group probably interacts with the enzyme at subsite S'2. Previously reported assays of endopeptidase 24.11 usually utilized a hydrophobic Phe residue, but Leu seems preferable in reaching higher kcat values. The rapid hydrolysis of the Leu residue is also preferable for the present two-stage assay utilizing Steptomyces aminopeptidase, since this enzyme very rapidly hydrolyzes the product of the endopeptidase attack, Leu-NH-Np. The rapid hydrolysis coupled with Km values in the 1 mM range and overall kcat /Km values in the 10^6 M^-1 s^-1 range (Table 3), render the substrate most suitable for detailed kinetic investigations of the enzymes and for detection of the 24.11 and 24.4 classes of enzymes in mammalian tissues and in bacterial extracellular fluids, respectively.
(§4) Like other previously reported substrates for endopeptidase 24.11, the substrate employed may, in principle, be hydrolyzed by chymotrypsin-like enzymes. To assess the contribution of the neutral endopeptidases and neutral proteinases 1 the observed color development, the specific inhibitor of these classes of enzymes phosphoramidon was added (Table 4).
(§5) Inhibition was measured at pH 7.5, 25° C., in the presence of 10 mM CaCl2 except for the neutrophils that were assayed at 37° C. and in the absence of added Ca^2+. The substrate Suc-Ala-Ala-Leu-NH-Npat 0.4 mM was used. […]

Experiment [3] concerns the target T3, Endopeptidase 24.11 from bovine kidney (Bos taurus, UniProt E1BPL8).
T3 construct: Endopeptidase 24.11 from bovine kidney was purified by Triton X-100 extraction; from tissue; host or cells: bovine kidney
T3 sequence (E1BPL8 1-750): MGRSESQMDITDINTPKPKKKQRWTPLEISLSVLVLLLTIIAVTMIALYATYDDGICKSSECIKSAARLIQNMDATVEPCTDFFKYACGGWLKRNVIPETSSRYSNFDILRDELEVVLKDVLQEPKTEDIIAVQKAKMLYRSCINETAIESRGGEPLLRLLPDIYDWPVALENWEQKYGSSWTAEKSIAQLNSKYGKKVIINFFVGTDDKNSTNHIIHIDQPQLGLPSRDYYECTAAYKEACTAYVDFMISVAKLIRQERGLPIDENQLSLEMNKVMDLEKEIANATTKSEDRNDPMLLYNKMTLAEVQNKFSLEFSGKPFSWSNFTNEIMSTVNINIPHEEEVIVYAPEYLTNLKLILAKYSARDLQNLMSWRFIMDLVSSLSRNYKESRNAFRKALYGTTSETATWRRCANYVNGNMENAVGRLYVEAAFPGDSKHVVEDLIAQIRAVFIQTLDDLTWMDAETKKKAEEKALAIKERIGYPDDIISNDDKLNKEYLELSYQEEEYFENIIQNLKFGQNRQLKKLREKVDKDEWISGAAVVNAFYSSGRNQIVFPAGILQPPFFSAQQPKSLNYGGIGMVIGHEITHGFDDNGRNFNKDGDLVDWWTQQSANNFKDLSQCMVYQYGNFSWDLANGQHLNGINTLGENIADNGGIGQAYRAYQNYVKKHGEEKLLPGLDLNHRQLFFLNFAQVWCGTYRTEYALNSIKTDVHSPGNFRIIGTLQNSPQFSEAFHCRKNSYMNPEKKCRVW
Described as above. In kind it is biochemical. On the procedure:
as §3, §4, §5

Experiment [4] has as its system Human neutrophils. The experiment can be described thus: Two-stage assay on intact cells: inhibition by phosphoramidon. In kind it is cell-based. As for the experimental part: as §1, with “PAGE. Both endopeptidase 24.11 from bovine kidney and thermolysin cleave the Ala-Leu bond of the compound at a very fast rate (Table 3).” for “PAGE.”
as §2

Experiment [5] has as its system Human neutrophils. The experiment is described as follows: Hydrolysis of the substrate by human neutrophils. The format is cell-based. Conditions: substrate 0.4 mM, pH 7.5; neutrophils from a healthy donor, 5×10^5 cells/ml. As for the experimental part: as §3, with “Previously reported assays of endopeptidase 24.11 usually utilized a hydrophobic Phe residue, but Leu seems preferable in reaching higher kcat values. The rapid hydrolysis of the Leu residue is also preferable for the present two-stage assay utilizing Steptomyces aminopeptidase, since this enzyme very rapidly hydrolyzes the product of the endopeptidase attack, Leu-NH-Np. The rapid hydrolysis coupled with Km values in the 1 mM range and overall kcat /Km values in the 10^6 M^-1 s^-1 range (Table 3), render the substrate most suitable for detailed kinetic investigations of the enzymes and for detection of the 24.11 and 24.4 classes of enzymes in mammalian tissues and in bacterial extracellular fluids, respectively.” left out

Structures are written as SMILES. Starred links: 1 amine or outer side, 2 acyl side, 3 side chain; linkers in the order of their positions; H or OH if unused. Residues, ends and D or L forms follow the SMILES beside them. *: point of attachment. pNA = O=[N+]([O-])c1ccc(N*)cc1; Suc = O=C(CCC(=O)[*:2])[*:1]

T1 sequence (P05806 250-566): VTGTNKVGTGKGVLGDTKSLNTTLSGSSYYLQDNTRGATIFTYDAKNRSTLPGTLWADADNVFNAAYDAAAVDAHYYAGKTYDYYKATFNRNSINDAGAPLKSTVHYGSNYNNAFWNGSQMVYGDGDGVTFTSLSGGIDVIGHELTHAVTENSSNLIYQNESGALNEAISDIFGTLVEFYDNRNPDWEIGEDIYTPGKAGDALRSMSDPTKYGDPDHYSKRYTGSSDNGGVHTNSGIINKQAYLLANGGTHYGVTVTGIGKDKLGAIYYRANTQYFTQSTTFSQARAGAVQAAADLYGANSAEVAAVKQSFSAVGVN

Consider `CC(C)C[C@H](NP(=O)(O)O[C@@H]1O[C@@H](C)[C@H](O)[C@@H](O)[C@H]1O)C(=O)N[C@@H](Cc1c[nH]c2ccccc12)C(=O)O` [phosphoramidon], for which the “effect of inhibitor on enzymatic reaction” value in experiment [1] (bacterial culture) and in experiment [4] (intact neutrophils) was “strongly inhibits” each time. Further, the inhibition (in general, the change of the read-out against control, counted positive when it falls) at 18 µM in experiment [1] (phosphoramidon 18.0 μM, pH 7.5, 25° C., 10 mM CaCl2, substrate 0.4 mM, culture filtrate 5 μl/ml substrate) was approximately 95%; in experiment [2] (phosphoramidon 18.0 μM, pH 7.5, 25° C., 10 mM CaCl2, substrate 0.4 mM, enzyme 1.5×10^-9 M) it was more than 99%. In addition, the “effect of inhibitor on activity” value in experiment [2] (purified enzyme) and in experiment [3] (purified enzyme) was “completely abolishes the activity” in each case. The inhibition at 3.6 µM is more than 99% in experiment [3] (phosphoramidon 3.6 μM, pH 7.5, 25° C., 10 mM CaCl2, substrate 0.4 mM, enzyme 2.2×10^-9 M) and more than 95% in experiment [4] (Homo sapiens, Neutrophil, phosphoramidon 3.6 μM, pH 7.5, 37° C., no added Ca2+, substrate 0.4 mM, 5×10^5 cells/ml).
Take `CC(C)C[C@H](NC(=O)[C@H](C)NC(=O)[C@H](C)NC(=O)CCC(=O)O)C(=O)Nc1ccc([N+](=O)[O-])cc1` [Suc-Ala-Ala-Leu-NH-Np] (Suc-Ala-Ala-Leu-pNA): the “rate of substrate hydrolysis” value in experiment [5] is listed as ~ 1.3 nmoles/min/10^6 cells.
